Data on 1 substance can be found in US6623741B1, “Methods and compositions for inhibition of membrane fusion-associated events including RSV transmission” (Trimeris, Inc., priority 2000, dated 2003).

Read-outs that look alike come from different tables or passages of the source.

In experiment [1] the test system is HIV-1 (HIV-1LAI, HIV-1MN, HIV-1RF, HIV-1SF2). In kind it is cell-based. How it is done:
Approximately 7×10^4 Molt cells were incubated with 1×10^4 CEM cells chronically infected with the HIV-1LAI virus in 96-well plates (one-half area cluster plates; Costar, Cambridge, Mass.) in a final volume of 100 μl culture medium as previously described (Matthews, T. J. et al., 1987, Proc. Natl. Acad. Sci. USA 84: 5424-5428). Peptide inhibitors were added in a volume of 10 μl and the cell mixtures were incubated for 24 hr. at 37° C. At that time, multinucleated giant cells were estimated by microscopic examination at a 40× magnification which allowed visualization of the entire well in a single field.
The initial screen for antiviral activity assayed peptides' ability to block syncytium formation induced by overnight co-cultivation of uninfected Molt 4 cells with chronically HIV-1 infected CEM cells. […] In the first of these experiments, serial DP178 (SEQ ID NO:15) peptide concentrations between 10 μg/ml and 12.5 ng/ml were tested for blockade of the cell fusion process. For these experiments, CEM cells chronically infected with either HIV-1LAI, HIV-1MN, HIV-1RF, or HIV-1SF2 virus were cocultivated overnight with uninfected Molt 4 cells.
The next series of experiments involved the preparation and testing of a DP178 (SEQ ID NO:15) homolog for its ability to inhibit HIV-1-induced syncytia formation.
(§1) The next series of experiments involved a comparison of DP178 (SEQ ID NO:15) HIV-1 and HIV-2 inhibitory activity.

The next experiment relates to HIV-2. Description: Cell fusion assay: HIV-2 mediated syncytia formation. In kind it is cell-based.
From the text: as §1

A further experiment concerns HIV-1LAI. To be noted: CEM cells, 7 days. The procedure:
Cell Free Virus Infection Assay:
(§2) Synthetic peptides were incubated at 37° C. with either 247 TCID50 (for experiment depicted in FIG. 2), or 62 TCID50 (for experiment depicted in FIG. 3) units of HIV-1LAI virus or 25 TCID50 units of HIV-2^NIHZ and CEM CD4^+ cells at peptide concentrations of 0, 0.04, 0.4, 4.0, and 40 μg/ml for 7 days. The resulting reverse transcriptase (RT) activity in counts per minute was determined using the assay described, below, in Section 6.1.5. See, Reed, L. J. et al., 1938, Am. J. Hyg. 27: 493-497 for an explanation of TCID50 calculations.
Reverse Transcriptase Assay:
(§3) The micro-reverse transcriptase (RT) assay was adapted from Goff et al. (Goff, S. et al., 1981, J. Virol. 38:239-248) and Willey et al. (Willey, R. et al., 1988, J. Virol. 62:139-147). Supernatants from virus/cell cultures are adjusted to 1% Triton-X100. A 10 μl sample of supernatant was added to 50 μl of RT cocktail in a 96-well U-bottom microtitre plate and the samples incubated at 37° C. for 90 min. The RT cocktail contained 75 mM KCl, 2 mM dithiothreitol, 5 mM MgCl2, 5 μg/ml poly A (Pharmacia, cat. No. 27-4110-01), 0.25 units/ml oligo dT (Pharmacia, cat. No. 27-7858-01), 0.05% NP40, 50 mM Tris-HCl, pH 7.8, 0.5 μM non-radioactive dTTP, and 10 μCi/ml ^32P-dTTP (Amersham, cat. No. PB. 10167).
After the incubation period, 40 μl of reaction mixture was applied to a Schleicher and Schuell (S+S) NA45 membrane (or DE81 paper) saturated in 2×SSC buffer (0.3 M NaCl and […] sodium citrate) held in a S+S Minifold over one sheet of GB003 (S+S) filter paper, with partial vacuum applied. Each well of the minifold was washed four times with 200 μl 2×SSC, under full vacuum. The membrane was removed from the minifold and washed 2 more times in a pyrex dish with an excess of 2×SSC. Finally, the membrane was drained on absorbent paper, placed on Whatman #3 paper, covered with Saran wrap, and exposed to film overnight at −70° C.
DP178 (SEQ ID NO:15) was next tested for its ability to block CD-4^+ CEM cell infection by cell-free HIV-1 virus. […]

Another experiment has as its system HIV-2NIHZ. Kind of experiment: Cell free virus infection assay (RT production, CEM cells). The format is cell-based. How it is done: as §2
as §3, with “10167). […]” for “10167).”

Experiment [2] deals with HIV-1IIIB. In kind it is cell-based. The procedure: Cell Fusion Assays For Anti-HIV Activity:
Cell fusion assays were performed as previously described (Matthews et al., 1987, Proc. Natl. Acad. Sci. USA 84: […]). CEM cells (7×10^4) were incubated with HIV-1IIIB chronically infected CEM cells (10^4) in 96-well flat-bottomed half-area plates (Costar) in 100 μl culture medium. Peptide and fusion proteins at various concentrations in 10 μl culture medium were incubated with the cell mixtures at 37° C. for 24 hours. Multinucleated syncytia were estimated with microscopic examination.

Experiment [3] deals with Fab-d (human recombinant Fab). Kind of experiment: ELISA analysis of Fab-d binding / DP178 binding to the leucine zipper motif of gp41. To be noted: reagent alone. How it is done:
ELISA Analysis of DP178 Binding to the Leucine Zipper Motif of gp41:
Each well was washed three times with distilled water then blocked with 3% bovine serum albumin (BSA) for 2 hours. After blocking, peptides with 0.5% BSA in TBST (40 mM Tris-HCl pH7.5, 150 mM NaCl, 0.05% Tween 20) were added to the ELISA plates and incubated at room temperature for 1 hour. After washing three times with TBST, Fab-d was added at a concentration of 10 ng/ml with 0.5% BSA in TBST. The plates were washed three times with TBST after incubation at room temperature for 1 hour. Horseradish peroxidase (HRP) conjugated goat antihuman Fab antiserum at a 2000 fold dilution in TBST with 0.5% BSA was added to each well and incubated at room temperature for 45 minutes. The plates were then washed four times with TBST. The peroxidase substrate o-phenylene diamine (2.5 mg/ml) and 0.15% H2O2 were added to develop the color. The reaction was stopped with an equal volume of 4.5 N H2SO4 after incubation at room temperature for 10 minutes. The optical density of the stopped reaction mixture was measured with a micro plate reader (Molecular Design) at 490 nm.
On the technique in general: ELISA stands for enzyme-linked immunosorbent assay.

Experiment [4] has as its system HIV-1IIIB. To be noted: 1IIIB.

Turning to Enfuvirtide, the “concentration affording complete protection against syncytium formation (lowest concentration tested)” value in experiment [1] (HIV-1LAI infected CEM + Molt 4 cells) was at most 12.5 ng/mL; in experiment [1] (HIV-1MN, HIV-1RF, HIV-1SF2 infected CEM + Molt 4 cells) it was at most 100 ng/mL. Also, the “concentration completely blocking virus-induced syncytia formation (lowest effective inhibitory concentration)” value in experiment [1] (HIV-1 mediated CD-4+ cell-cell fusion) lay in the range of 1 to 10 ng/mL. Moreover, in experiment [1] (HIV-1 vs HIV-2 comparison, FIG. 5), the “concentration blocking HIV-1-mediated syncytia formation” value is given as “below 1 ng/ml”. Moreover, the “selectivity as inhibitor of HIV-1-mediated over HIV-2 mediated cell fusion” value with HIV-2 turned out to be 4 log. Further, in the experiment with HIV-2 (FIG. 5), the “concentration failing to block HIV-2 mediated syncytia formation” value was over 10 µg/mL. Also, the “IC50 (RT production)” value with HIV-1LAI (62 TCID50 HIV-1LAI) was “about 31 ng/ml”; in the experiment with HIV-1LAI (247 TCID50 HIV-1LAI), 0.09 µg/mL. Further, the “IC50 for HIV-2NIHZ (in words)” value with HIV-2NIHZ (25 TCID50 HIV-2NIHZ, CEM cells, 7 days) is “much higher IC50”. Further, the “potency as HIV-1 inhibitor versus HIV-2 inhibitor” value in the experiment on HIV-2NIHZ (cell-free infection) is “two logs more potent”. Further, the “syncytia in the presence of the peptide” value in the experiment with HIV-1IIIB [2] (10 nM) is “no observable syncytia”. For the same substance, the IC90 (commonly the concentration at which the effect reaches the 90% level) in the experiment with HIV-1IIIB [2] (HIV-1 induced membrane fusion, read-out: Cell Fusion (IC90)) was 1 nM; with HIV-1IIIB [4], 80 nM. Moreover, the “Fab-d binding (in words)” value in experiment [3] is listed as “failed to bind”.
